The source made the active and inactive calls.
Key:
Mu-type opioid receptor = Mu-type opioid receptor (Homo sapiens, UniProt P35372); type: functional, cell-based;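 further: U2OS cells with beta-arrestin recruitment to OPRM1 by beta-gal complementation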
[1] = molecular target: 5-hydroxytryptamine receptor 2A (Mus musculus, UniProt P35363); type: functional, cell-based;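 further: CHO-K1 cells with tagged receptor and beta-arrestin; agonist potency measured as compound-induced activation of the receptor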
Chain of 5-hydroxytryptamine receptor 2A (P35363 whole entry): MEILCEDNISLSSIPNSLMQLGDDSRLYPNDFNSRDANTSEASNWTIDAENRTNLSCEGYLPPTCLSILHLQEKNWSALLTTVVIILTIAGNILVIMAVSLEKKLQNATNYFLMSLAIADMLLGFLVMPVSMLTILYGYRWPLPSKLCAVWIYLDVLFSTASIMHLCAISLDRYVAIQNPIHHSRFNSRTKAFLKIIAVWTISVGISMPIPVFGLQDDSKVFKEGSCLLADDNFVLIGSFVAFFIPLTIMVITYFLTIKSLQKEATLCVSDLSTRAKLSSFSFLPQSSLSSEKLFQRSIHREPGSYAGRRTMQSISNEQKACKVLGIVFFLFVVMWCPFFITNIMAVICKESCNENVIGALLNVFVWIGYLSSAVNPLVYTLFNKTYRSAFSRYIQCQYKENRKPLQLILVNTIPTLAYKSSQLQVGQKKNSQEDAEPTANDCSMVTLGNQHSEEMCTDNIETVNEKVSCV

Paired box protein Pax-8 = Paired box protein Pax-8 (Homo sapiens, UniProt Q06710); assay: inhibitors of PAX8-driven TPO luciferase reporter, dose response, RMG-I cells, cherry-pick (AID 687027); type: functional, cell-based;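 further: luciferase reporter driven by Pax8 target thyroperoxidase promoter measured by SteadyGlo luminescence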
Chain of Paired box protein Pax-8 (Q06710 whole entry): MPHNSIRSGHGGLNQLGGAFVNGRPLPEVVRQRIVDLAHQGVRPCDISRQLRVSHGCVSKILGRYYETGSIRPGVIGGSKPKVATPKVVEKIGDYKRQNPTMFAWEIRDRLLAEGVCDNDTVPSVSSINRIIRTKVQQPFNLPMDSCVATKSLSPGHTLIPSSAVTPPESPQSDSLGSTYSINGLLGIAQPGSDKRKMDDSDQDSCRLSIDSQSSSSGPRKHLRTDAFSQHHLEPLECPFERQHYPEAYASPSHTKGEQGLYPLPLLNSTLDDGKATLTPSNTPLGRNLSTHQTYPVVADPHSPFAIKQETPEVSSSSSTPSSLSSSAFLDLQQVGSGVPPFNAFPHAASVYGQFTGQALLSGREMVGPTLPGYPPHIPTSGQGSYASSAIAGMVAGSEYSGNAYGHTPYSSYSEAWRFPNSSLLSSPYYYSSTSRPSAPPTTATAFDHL

[2] = cytotoxicity in OVCAR8 ovarian cancer cells, dose response, PAX8 project, cell-based, plate reader, dry powder samples (AID 743197); type: functional; conditions: OVCAR-8
[3] = molecular target: FAD-linked sulfhydryl oxidase ALR (Homo sapiens, UniProt P55789); assay: inhibitors of human ALR sulfhydryl oxidase, dose response, biochemical, H2O2 detection, luminescence, cherry-pick (AID 493248)
Chain of FAD-linked sulfhydryl oxidase ALR (P55789 whole entry): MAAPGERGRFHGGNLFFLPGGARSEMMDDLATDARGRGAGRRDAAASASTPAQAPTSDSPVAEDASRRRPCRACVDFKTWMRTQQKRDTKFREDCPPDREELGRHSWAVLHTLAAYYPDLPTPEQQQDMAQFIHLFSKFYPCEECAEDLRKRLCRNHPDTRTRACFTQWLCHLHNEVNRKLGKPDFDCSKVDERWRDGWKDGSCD

[4] = LGR2 antagonists, dose response, cell-based, HEK293, CRE-luciferase reporter, cherry pick, set 2 (AID 743343); type: functional;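 further: transfected cells were stimulated with diluted bursicon conditioned medium after compound addition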
[5] = HEK293 cell cytotoxicity, dose response, cytotoxicity control, plate reader, cherry-picked samples (AID 743446); type: functional, cell-based
[6] = HepG2 cell cytotoxicity, dose response, cytotoxicity control, plate reader, cherry-pick, antagonist series (AID 743416); type: functional, cell-based
[7] = A549 cell cytotoxicity, dose response, cytotoxicity control, plate reader, cherry-pick, antagonist series (AID 743412); type: functional, cell-based
[8] = MC4R antagonists, dose response, counter-screen for LGR2 antagonist project, cell-based, plate reader, cherry pick (AID 743444); type: functional;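 further: transfected HEK 293 cells stimulated with alpha-MSH peptide; potency of inhibitors of the alpha-MSH evoked signal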
[9] = molecular target: T1, Microphthalmia-associated transcription factor (Homo sapiens, UniProt O75030); assay: TRPM1 promoter luciferase signal decrease, dose response, MITF inhibitor project, cell-based, SK-MEL-5, cherry-picked, set 3 (AID 493073); type: functional
T1 sequence (O75030 whole entry): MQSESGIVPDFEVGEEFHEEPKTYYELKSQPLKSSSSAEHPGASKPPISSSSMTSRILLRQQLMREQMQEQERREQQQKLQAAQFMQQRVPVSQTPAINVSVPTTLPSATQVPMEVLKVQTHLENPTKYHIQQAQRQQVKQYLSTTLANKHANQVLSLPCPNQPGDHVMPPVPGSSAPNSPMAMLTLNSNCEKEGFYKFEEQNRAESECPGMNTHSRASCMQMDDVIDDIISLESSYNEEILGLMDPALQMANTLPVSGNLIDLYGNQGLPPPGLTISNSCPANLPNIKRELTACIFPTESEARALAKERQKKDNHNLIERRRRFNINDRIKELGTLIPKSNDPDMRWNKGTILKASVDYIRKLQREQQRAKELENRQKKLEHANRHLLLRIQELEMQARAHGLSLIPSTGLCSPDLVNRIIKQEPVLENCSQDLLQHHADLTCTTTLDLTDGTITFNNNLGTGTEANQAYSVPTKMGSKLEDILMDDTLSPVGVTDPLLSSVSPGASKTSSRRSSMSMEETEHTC

Cytochrome P450 3A4 = Cytochrome P450 3A4 (Homo sapiens, UniProt P08684);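 further: CYP3A4 tested as one member of a cytochrome P450 panel screen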
Chain of Cytochrome P450 3A4 (P08684 whole entry): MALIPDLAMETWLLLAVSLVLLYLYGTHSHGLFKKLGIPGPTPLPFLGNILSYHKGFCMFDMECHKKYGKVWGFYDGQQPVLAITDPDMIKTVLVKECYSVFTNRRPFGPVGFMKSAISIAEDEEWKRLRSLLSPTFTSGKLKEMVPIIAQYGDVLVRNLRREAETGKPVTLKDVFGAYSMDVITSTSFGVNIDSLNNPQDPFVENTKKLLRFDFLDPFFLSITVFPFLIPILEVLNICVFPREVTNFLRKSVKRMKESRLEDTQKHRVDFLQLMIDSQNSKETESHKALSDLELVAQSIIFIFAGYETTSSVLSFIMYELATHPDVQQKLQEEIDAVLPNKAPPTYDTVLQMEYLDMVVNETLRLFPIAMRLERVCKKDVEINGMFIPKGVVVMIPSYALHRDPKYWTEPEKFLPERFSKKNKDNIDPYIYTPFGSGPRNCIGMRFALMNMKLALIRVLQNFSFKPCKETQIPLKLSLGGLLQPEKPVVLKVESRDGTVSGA

Coagulation factor XII = molecular target: T2, Coagulation factor XII (Homo sapiens, UniProt P00748); type: functional;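 further: activated factor XIIa alpha cleaving a fluorogenic AMC peptide substrate; inhibitor potency from loss of enzyme activity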
T2 sequence (P00748 whole entry): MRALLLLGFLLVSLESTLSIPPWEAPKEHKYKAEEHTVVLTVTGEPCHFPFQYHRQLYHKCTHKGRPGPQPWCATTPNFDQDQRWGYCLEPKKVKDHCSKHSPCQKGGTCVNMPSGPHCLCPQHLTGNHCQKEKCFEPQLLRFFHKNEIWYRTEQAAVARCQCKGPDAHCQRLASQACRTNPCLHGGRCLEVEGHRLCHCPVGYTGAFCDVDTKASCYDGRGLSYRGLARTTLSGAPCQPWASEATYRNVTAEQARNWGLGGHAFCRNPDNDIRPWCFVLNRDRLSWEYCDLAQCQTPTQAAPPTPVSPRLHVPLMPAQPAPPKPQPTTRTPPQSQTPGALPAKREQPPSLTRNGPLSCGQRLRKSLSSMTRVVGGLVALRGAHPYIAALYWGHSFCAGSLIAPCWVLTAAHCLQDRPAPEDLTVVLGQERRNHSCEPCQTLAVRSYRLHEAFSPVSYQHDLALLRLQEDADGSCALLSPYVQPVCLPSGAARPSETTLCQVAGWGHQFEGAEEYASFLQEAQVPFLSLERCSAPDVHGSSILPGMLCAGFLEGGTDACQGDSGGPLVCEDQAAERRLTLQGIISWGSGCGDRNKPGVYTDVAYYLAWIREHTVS

Cytochrome P450 2C9 = Cytochrome P450 2C9 (Homo sapiens, UniProt P11712)
Chain of Cytochrome P450 2C9 (P11712 whole entry): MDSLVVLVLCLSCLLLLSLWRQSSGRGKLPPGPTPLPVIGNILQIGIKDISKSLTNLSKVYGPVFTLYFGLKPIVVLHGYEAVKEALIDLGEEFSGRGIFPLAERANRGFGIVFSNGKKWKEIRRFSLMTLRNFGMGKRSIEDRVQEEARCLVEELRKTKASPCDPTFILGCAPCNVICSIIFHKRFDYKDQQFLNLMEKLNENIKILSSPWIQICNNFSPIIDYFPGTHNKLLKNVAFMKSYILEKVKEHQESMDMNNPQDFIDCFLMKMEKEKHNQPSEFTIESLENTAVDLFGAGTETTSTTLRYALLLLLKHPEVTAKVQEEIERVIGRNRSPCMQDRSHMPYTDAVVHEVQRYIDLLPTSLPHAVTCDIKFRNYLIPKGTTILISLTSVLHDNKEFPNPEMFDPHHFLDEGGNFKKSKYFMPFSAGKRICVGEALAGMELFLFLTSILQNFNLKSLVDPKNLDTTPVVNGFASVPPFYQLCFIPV

[10] = test system: Streptococcus sp. 'group A'; assay: growth inhibition of control SK(-) GAS strain, dose response, counter-screen for streptokinase expression inhibitor project, luminescence, kanamycin, BacTiterGlo, confirmation (AID 1900); type: functional, organism-based
[11] = molecular target: Heat shock protein HSP 90-alpha (Homo sapiens, UniProt P07900); type: functional, organism-based
Streptokinase A = molecular target: T3, Streptokinase A (Streptococcus pyogenes serotype M1, UniProt P10520); assay: S. pyogenes streptokinase expression inhibitors, potency, dose response, plasminogen activation absorbance, OD405 (AID 1914); type: functional, Streptococcus pyogenes M1 GAS;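 further: secreted streptokinase activity via plasminogen activation per viability signal from cell pellet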
T3 sequence (P10520 whole entry): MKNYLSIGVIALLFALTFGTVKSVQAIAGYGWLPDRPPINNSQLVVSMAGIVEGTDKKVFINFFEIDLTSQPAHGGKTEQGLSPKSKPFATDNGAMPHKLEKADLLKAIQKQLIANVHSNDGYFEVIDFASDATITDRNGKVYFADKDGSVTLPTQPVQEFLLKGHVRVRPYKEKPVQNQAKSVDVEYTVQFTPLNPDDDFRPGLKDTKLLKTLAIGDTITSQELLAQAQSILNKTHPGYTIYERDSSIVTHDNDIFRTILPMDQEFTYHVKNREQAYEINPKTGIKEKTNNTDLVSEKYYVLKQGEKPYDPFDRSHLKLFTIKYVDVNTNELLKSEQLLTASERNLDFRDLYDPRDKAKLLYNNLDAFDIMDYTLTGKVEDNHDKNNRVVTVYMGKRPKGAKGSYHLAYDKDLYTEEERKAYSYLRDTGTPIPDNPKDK

[12] = Luminescence Cell-Based Dose Retest to Confirm Inhibitors of Cancer Stem Cells. [Related pubchem assays (depositor defined):AID2717, AID2721]; type: functional; conditions: Homo sapiens
[13] = microbe, parasite or virus in culture; type: functional; conditions: Mycobacterium tuberculosis
Streptococcus = assay: Group A Streptococcus viability loss, dose response, counter-screen for streptokinase expression inhibitor project, luminescence, BacTiterGlo (AID 1915); type: functional, organism-based;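 further: potency for reduction of bacterial viability or growth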
[14] = human group III sPLA2 inhibitors, dose response, biochemical, QFRET, IC50 (AID 743457);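 further: green fluorescence rise as the enzyme cleaves BODIPY PC-A2 in liposomes; potency for inhibition of the enzyme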

Chain of Mu-type opioid receptor (P35372 whole entry): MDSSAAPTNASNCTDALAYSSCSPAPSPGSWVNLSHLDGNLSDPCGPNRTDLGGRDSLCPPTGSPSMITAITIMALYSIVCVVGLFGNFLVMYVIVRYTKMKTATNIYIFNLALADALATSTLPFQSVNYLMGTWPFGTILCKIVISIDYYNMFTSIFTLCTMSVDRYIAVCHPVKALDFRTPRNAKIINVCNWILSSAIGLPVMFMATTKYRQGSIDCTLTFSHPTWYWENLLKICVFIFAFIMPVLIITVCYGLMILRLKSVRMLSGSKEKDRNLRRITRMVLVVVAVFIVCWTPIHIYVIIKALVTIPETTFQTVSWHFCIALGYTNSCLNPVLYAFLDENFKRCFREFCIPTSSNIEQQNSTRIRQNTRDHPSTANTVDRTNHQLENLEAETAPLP

In the case of `O=C(c1ccco1)N1CCN(Cc2ccccc2Br)CC1`, the EC50 (Mu-type opioid receptor) is reported as 92.5 µM (inactive) and the EC50 [1] is reported as 5.91 µM (active).

For `C[C@@H]1CCCCO[C@H](CN(C)Cc2ccc(C(F)(F)F)cc2)[C@H](C)CN([C@H](C)CO)C(=O)c2cc(NS(=O)(=O)c3ccccc3)ccc2O1`, the AC50 (Paired box protein Pax-8) was 6.88 µM (active) and the AC50 [2] was > 70 µM (inactive).

For `C=CCN1CCc2c(cc(O)c(O)c2Cl)C(c2ccccc2)C1` (stereo not given), the EC50 (Mu-type opioid receptor) was 92.4 µM (inactive), the EC50 [1] was 0.203 µM (active) and the AC50 [3] was 4.74 µM (active).

For `Cn1nnnc1Sc1ncnc2scc(-c3ccsc3)c12`, the AC50 [4] was 6.32 µM (active), the AC50 (Paired box protein Pax-8) was 2.56 µM (active) and the AC50 [5] was 9.67 µM (active). For the same molecule, the AC50 [6] was 10.9 µM (active), the AC50 [7] was 9.63 µM (active) and the AC50 [8] was 8.27 µM (active). For the same molecule, the AC50 [9] was 7.95 µM (active).

For `Cc1cc(C(=O)Nc2ccc(N3CCOCC3)cc2)c2ccccc2n1`, the AC50 (Cytochrome P450 3A4) was 15.8 µM (inconclusive), the IC50 (Coagulation factor XII) was > 50 µM (inactive) and the AC50 (Cytochrome P450 2C9) was “inconclusive”.

For `Cc1cc2c(cc1C)CSC(c1c(O)ccc3ccccc13)SC2`, the EC50 [10] was 1.98 µM (active), the AC50 [11] was 4.26 µM (active) and the EC50 (Streptokinase A) was 3.41 µM (active). For the same molecule, the AC50 [12] was 2.24 µM (active), the CC50 [13] was 23 µM (active) and the EC50 (Streptococcus) was 5.67 µM (active).

For `Cc1cc(N2CCCC2)ccc1NC(=O)COc1cccc(C(F)(F)F)c1`, the IC50 [14] was > 122 µM (inactive).

For `Oc1nc2ccccc2n1C1CCN(C(CCc2ccccc2)c2nnnn2C2CCCC2)CC1` (stereo not given), the AC50 [4] was 20.3 µM (active), the AC50 [5] was 14.1 µM (active) and the AC50 [6] was 22.4 µM (active). The AC50 [7] was 13.3 µM (active) and the AC50 [8] was 18.4 µM (active).

For `O=C1C2C3C=CC(CNS(=O)(=O)c4ccccc4[N+](=O)[O-])(O3)C2C(=O)N1c1ccccc1` (stereo not given), the AC50 [11] was 25.5 µM (active).
